Assay results published in patent US20220323329A1, “ORAL HEALTH COMPOSITION AND PREPARATION PROCESS FOR ORAL HEALTH COMPOSITION” (MMF&T DESENVOLVIMENTO TECNOLÓGICO E INOVAÇÃO LTDA., priority 2019, published 2022).

Experiments:
[1] = test system: Streptococcus mutans (ATCC 25175); experiment: Antimicrobial potential of phthalocyanine by direct contact; format: cell-based; conditions: different concentrations and timespans (10.000 mg and 1.000 mg, 3 and 5 minutes in FIGS. 5, 6)
Experimental: (§1) Studies were carried out for the improvement of antimicrobial potential of phthalocyanines, in an intrinsic aim of developing toothpastes, such as dental creams and dental foams including phthalocyanine for in vitro studies and possibly also in vivo studies.
(§2) For this purpose, the following microorganisms were used: Streptococcus mutans (ATCC 25175); Candida albicans (ATCC 10231); Enterococcus faecalis (ATCC 29212); and Staphylococcus aureus (ATCC 6538).

[2] = test system: Staphylococcus aureus (ATCC 6538); experiment: as above; format: cell-based; conditions: different concentrations and timespans (10.000 mg and 1.000 mg, 24 hours in FIG. 4)
Experimental: as §1, §2

[3] = test system: Candida albicans (ATCC 10231); experiment: as above; format: cell-based; conditions: different concentrations and timespans (10.000 mg and 1.000 mg, 24 hours in FIG. 2)
Experimental: as §1, §2

[4] = test system: Enterococcus faecalis (ATCC 29212); experiment: as above; format: cell-based; conditions: different concentrations and timespans (10.000 mg and 1.000 mg, 24 hours in FIG. 3)
Experimental: as §1, §2

[5] = PDT with phthalocyanine-glucamine as PTS; rats; cited from earlier work

Row | Molecule | microbicidal action / inhibition of microbial growth [1] | microbicidal action / inhibition of microbial growth [2] | microbicidal action / inhibition of microbial growth [3] | microbicidal action / inhibition of microbial growth [4] | treatment of induced periodontal disease [5]
1 | c1ccc2c(c1)-c1nc-2nc2[nH]c(nc3nc(nc4[nH]c(n1)c1ccccc41)-c1ccccc1-3)c1ccccc21 [phthalocyanine] | full inhibition of microbial growth | full inhibition of microbial growth | full inhibition of microbial growth | full inhibition of microbial growth | 
2 | phthalocyanine-glucamine |  |  |  |  | effective in the treatment of periodontal disease induced in rats
